The values below are quoted from earlier work in US20150313829A1, “TOPICAL FORMULATIONS FOR THE PREVENTION AND TREATMENT OF ALOPECIA AND INHIBITION OF HAIR GROWTH” (UNIVERSIDADE FEDERAL DE MINAS GERAIS -UFMG, priority 2012, published 2015).

This data set relates to murine model of alopecia. The following applies: WO 01/98325.

Take “Asp1-Arg2-VAL3-Tyr4-Ile5-His6-Pro7 [Ang-(1-7)]”: the hair growth result is “induces hair growth” and the “number of mature follicles” value is recorded as “increased the number of mature follicles”.
